Assay results: patent US20220257491A1, “Prebiotic Oral Care Compositions and Methods” (Colgate-Palmolive Company, priority 2021, published 2022)
Values joined by “and” are separate entries in the source; they are usually repeats but may differ in a detail not shown here. Identical values can stand only once.

Tests used:
Format in all cases: cell-based
A. actinomycetemcomitans = experiment: Multi-species biofilm composition: absolute abundance of A. actinomycetemcomitans; conditions: mean±SD n=3
Method: (§1) Biofilms are grown vertically on Calcium Deficient Hydroxyapatite (CAD-HA) disks (Hitemco Medical, Old Bethpage, USA) using the Amsterdam Active Adhesion model. Biofilms are allowed to establish during 24 h (37° C., 170 rpm) under micro-aerophilic conditions (6% O2, 7% CO2, 7% H2, 80% N2). After this 24 h, disks are rinsed 3 times a day for 3 minutes (RT, 250 rpm), for 3 consecutive days, by transferring the lid containing the disks to a new 24-well plate containing 2 mL/well of the appropriate substrate solution. As a negative control, PBS (pH 5.7) without substrate supplementation is used. After each rinsing step, disks are shortly dip-rinsed in a new 24-well plate containing fresh modified BHI medium (2 mL/well) to remove remaining substrate traces. Subsequently, the lid is transferred to another 24-well plate containing fresh modified BHI medium (2 mL/well), followed by incubation (micro-aerophilic, 37° C., 170 rpm) until the next rinsing step.
(§2) NADM, N-acetyl-D-glucosamine (“NADG”) and D-(+)-mannose are selected to determine their effects on multi-species biofilm composition. […] decrease in absolute numbers in at least four of the pathogenic bacterial species tested in the assay, compared to the control, the results of which are described in Table 1 below. Absolute abundances of bacterial species are shown as mean±SD (n=3) logarithmic values of the genome equivalents per millilitre (log(Geq/mL)).

F. nucleatum = experiment: Multi-species biofilm composition: absolute abundance of F. nucleatum; conditions: mean±SD n=3
Method: as §1, §2

S. sobrinus = experiment: Multi-species biofilm composition: absolute abundance of S. sobrinus; conditions: mean±SD n=3
Method: as §1, §2

A. viscosus = experiment: Multi-species biofilm composition: absolute abundance of A. viscosus; conditions: mean±SD n=3
Method: as §1, §2

S. gordonii = experiment: Multi-species biofilm composition: absolute abundance of S. gordonii; conditions: mean±SD n=3
Method: as §1
(§3) NADM, N-acetyl-D-glucosamine (“NADG”) and D-(+)-mannose are selected to determine their effects on multi-species biofilm composition. Repeated rinsing of the biofilms with the substrates at a concentration of 1M results in a significant decrease in absolute numbers in at least four of the pathogenic bacterial species tested in the assay, compared to the control, the results of which are described in Table 1 below. Absolute abundances of bacterial species are shown as mean±SD (n=3) logarithmic values of the genome equivalents per millilitre (log(Geq/mL)).

S. mitis = experiment: Multi-species biofilm composition: absolute abundance of S. mitis; conditions: mean±SD n=3
Method: as §1, §2

S. sanguinis = experiment: Multi-species biofilm composition: absolute abundance of S. sanguinis; conditions: mean±SD n=3
Method: as §1, §2

V. parvula = experiment: Multi-species biofilm composition: absolute abundance of V. parvula; conditions: mean±SD n=3
Method: as §1, §3

multi-species biofilm = experiment: Relative multi-species biofilm composition (groups of bacterial species); conditions: mean±SD n=3
Method: as §1, §2
Relative abundances of the different groups (beneficial/commensals, periodontal pathogens, cariogenic pathogens) of bacterial species are shown as mean±SD (n=3) percentage of the genome equivalents per millilitre (% (Geq/mL)). […] NADM: N-acetyl-D-mannosamine; NADG: N-acetyl-D-glucosamine.

multi-species biofilms = experiment: Multi-species biofilm organic acid balances (supernatant); conditions: >0 production, <0 consumption, mean±SD n=3
Method: as §1
To examine the effect of NADM and the influence of the orientation and absence/presence of the N-acetyl group on organic acid production and consumption, supernatant samples from substrate-treated or untreated multi-species biofilms are analysed. […] When comparing relevant significant differences between substrate conditions, an increase in acetate production is observed for NADM compared to D-(+)-mannose (3084±174 vs. 1934±56 mg/L).

[1] = test system: P. intermedia virulence genes; experiment: Multi-species biofilm virulence gene expression, SYBR RT-qPCR: P. intermedia; conditions: for Fold Change in virulence gene expression: DnaJ / Fold Change in virulence gene expression: DnaK / Fold Change in virulence gene expression: ECF / Fold Change in virulence gene expression: GroES / Fold Change in virulence gene expression: HtpG / Fold Change in virulence gene expression: KpsD / Fold Change in virulence gene expression: adpc / Fold Change in virulence gene expression: clpB / Fold Change in virulence gene expression: inpA / Fold Change in virulence gene expression: phg: relative to control (=1), 2^-ΔΔCt, geometric mean n=3
Method: as §1
The expression of 33 virulence genes from 4 periodontal pathogens is analysed to evaluate the relative virulence of the substrate-treated biofilms. For all three substrates, virulence gene expression is determined relatively to the control, and these values are also compared between substrates when this is relevant (Tables 5a-5d).

## CC(=O)N[C@@H]1C(O)O[C@H](CO)[C@@H](O)[C@@H]1O (stereo partly drawn) [NADM, N-acetyl-D-mannosamine]
A. actinomycetemcomitans; substrate 1%(w/v) in PBS
  Absolute abundance Aa (A. actinomycetemcomitans): 9.51 ± 0.05 log(Geq/mL)
A. actinomycetemcomitans; substrate 1 M in PBS
  Absolute abundance Aa (A. actinomycetemcomitans): 7.84 ± 0.53 log(Geq/mL)
F. nucleatum; substrate 1%(w/v) in PBS
  Absolute abundance Fn (F. nucleatum): 9.60 ± 0.22 log(Geq/mL)
F. nucleatum; substrate 1 M in PBS
  Absolute abundance Fn (F. nucleatum): 8.14 ± 0.44 log(Geq/mL)
S. sobrinus; substrate 1%(w/v) in PBS
  Absolute abundance S. sobrinus: 5.24 ± 0.27 log(Geq/mL)
S. sobrinus; substrate 1 M in PBS
  Absolute abundance S. sobrinus: 6.05 ± 0.23 log(Geq/mL)
A. viscosus; substrate 1%(w/v) in PBS
  Absolute abundance Av (A. viscosus): 7.73 ± 0.09 log(Geq/mL)
A. viscosus; substrate 1 M in PBS
  Absolute abundance Av (A. viscosus): 8.35 ± 0.30 log(Geq/mL)
S. gordonii; substrate 1%(w/v) in PBS
  Absolute abundance S. gord. (S. gordonii): 8.40 ± 0.10 log(Geq/mL)
S. gordonii; substrate 1 M in PBS
  Absolute abundance S. gord. (S. gordonii): 8.94 ± 0.32 log(Geq/mL)
S. mitis; substrate 1%(w/v) in PBS
  Absolute abundance S. mitis: < LOD
S. mitis; substrate 1 M in PBS
  Absolute abundance S. mitis: <LOD
S. sanguinis; substrate 1%(w/v) in PBS
  Absolute abundance S. sang. (S. sanguinis): 8.62 ± 0.39 log(Geq/mL)
S. sanguinis; substrate 1 M in PBS
  Absolute abundance S. sang. (S. sanguinis): 9.10 ± 0.29 log(Geq/mL)
V. parvula; substrate 1%(w/v) in PBS
  Absolute abundance Vp (V. parvula): 10.05 ± 0.17 log(Geq/mL)
V. parvula; substrate 1 M in PBS
  Absolute abundance Vp (V. parvula): 10.76 ± 0.09 log(Geq/mL)
multi-species biofilm; substrate 1%(w/v) in PBS
  Relative abundance Beneficials/Commensals: 61.62 ± 4.88 % (Geq/mL)
  Relative abundance Cariogenic Pathogens: 0.05 ± 0.01 % (Geq/mL)
  Relative abundance Periodontal Pathogens: 38.32 ± 4.86 % (Geq/mL)
multi-species biofilm; substrate 1 M in PBS
  Relative abundance Beneficial or commensals: 97.61±0.28 % (Geq/mL)
  Relative abundance Cariogenic Pathogens: 0.06 ± 0.04 % (Geq/mL)
  Relative abundance Periodontal Pathogens: 2.34±0.31 % (Geq/mL) and 2.34 ± 0.31^#2, 3 % (Geq/mL)
multi-species biofilms; substrate 1%(w/v)
  acetate level in biofilm supernatant: 396 ± 11 mg/L
  butyrate level in biofilm supernatant: 1989 ± 44 mg/L
  formate level in biofilm supernatant: 3768 ± 174 mg/L
  lactate level in biofilm supernatant: 125 ± 0 mg/L
  propionate level in biofilm supernatant: 1891 ± 79 mg/L
multi-species biofilms; substrate 1 M
  butyrate level in biofilm supernatant: 541±52 mg/L and 541 ± 52*^, #2, 3 mg/L
  formate level in biofilm supernatant: 791.9 ± 138.27 mg/L and 792 ± 138 mg/L
  lactate level in biofilm supernatant: 125 ± 0 mg/L
  propionate level in biofilm supernatant: 2052 ± 54 mg/L
[1]; substrate 1%(w/v), D-(+)-mannose for 3 genes
  Relative P. intermedia virulence gene expression, downregulation: 2.5- to 7.7 fold
[1]; substrate 1%
  Fold Change in virulence gene expression: DnaJ: 0.19 fold
  Fold Change in virulence gene expression: DnaK: 0.31 fold
  Fold Change in virulence gene expression: ECF: 0.13 fold
  Fold Change in virulence gene expression: GroES: 0.51 fold
  Fold Change in virulence gene expression: HtpG: 0.21 fold
  Fold Change in virulence gene expression: KpsD: 0.35 fold
  Fold Change in virulence gene expression: adpc: 0.21 fold
  Fold Change in virulence gene expression: clpB: 0.40 fold
  Fold Change in virulence gene expression: inpA: 0.28 fold
  Fold Change in virulence gene expression: phg: 0.26 fold
[1]; substrate 1M
  Fold Change in virulence gene expression: DnaJ: 0.15 fold
  Fold Change in virulence gene expression: DnaK: 0.70 fold
  Fold Change in virulence gene expression: ECF: 0.55 fold
  Fold Change in virulence gene expression: GroES: 0.45 fold
  Fold Change in virulence gene expression: HtpG: 0.35 fold
  Fold Change in virulence gene expression: KpsD: 0.41 fold
  Fold Change in virulence gene expression: adpc: 0.70 fold
  Fold Change in virulence gene expression: clpB: 0.40 fold
  Fold Change in virulence gene expression: inpA: 0.64 fold
  Fold Change in virulence gene expression: phg: 0.15 fold
